Laboratory results: patent publication US20100003217A1, “Compounds and Pharmaceutical Compositions for the Treatment of Viral Infections” (priority 2008, published 2010)
Each block holds one molecule with its values, some of them ahead of it.

Experiments:
Assay type in all cases: in vitro ADME
[1] = Stability in human liver microsomes; conditions: for % Residual Compound 1 / % Residual Compound 2: human liver microsomes 1 mg/mL; for NADPH-dependent metabolism: human liver microsomes; for % Residual compound following incubation with liver microsomes: human microsomes 1 mg/mL; for % Residual Compound 2: 15 min
Description: (§1) Disappearance of parent Compound 1 was used to evaluate the in vitro metabolism thereof. Relative levels of unchanged Compound 1 were measured by HPLC-UV method 1. Residual Compound 1 is reported as percent difference from time zero or control. The HPLC-UV system was as follows:
Incubations with liver microsomes or cytosol were conducted in a final volume of 0.1 mL per incubation time point. […] The microsomal reaction was initiated by the addition of NADPH (3 mM final concentration). Incubations with (a) no protein or (b) no NADPH served as controls. Reactions were terminated by the addition of 0.2 mL of stop solution (acetonitrile). The samples were vortex-mixed for 30 sec and then centrifuged at 10,000×g for 10 min. The supernatant was dried using a Labconco CentriVap concentrator and the dry residue reconstituted in water, transferred to an HPLC glass vial and analyzed by HPLC-UV method 1 (described above).
(§2) Metabolic stability of the proposed metabolites was conducted by incubating the chemically synthesized standards Compound 2, Compound 4 and Compound 3 as described above for Compound 1. When possible, formation of Compound 5 was verified by incubating samples with alkaline phosphatase (10 U) for 60 min at 37° C.

[2] = Incubation with monkey liver cytosol; conditions: monkey cytosol 1 mg/mL, 2 hours, 10 μM
Description: (§3) Pooled liver cytosol (1.0 mg protein/mL) suspended in incubation buffer (0.1 M potassium phosphate, pH 7.4) was incubated for 2 hours at 37° C. with 10 μM Compound 1 from a stock solution in DMSO (final DMSO concentration was 0.1%); reaction was initiated with the addition of test article. Incubations with no protein served as control. Reactions were terminated by the addition of 0.1 mL of stop solution (acetonitrile). The samples were vortex-mixed for 30 sec and then centrifuged at 10,000×g for 10 min. The supernatant was dried using a Labconco CentriVap concentrator and the dry residue reconstituted in water, transferred to an HPLC glass vial and analyzed by HPLC-UV method 2 (described above).
as §2

[3] = Incubation with human liver cytosol; conditions: human cytosol 1 mg/mL, 2 hours, 10 μM
Description: as §3, §2

[4] = Stability in monkey liver microsomes; conditions: for % Residual Compound 1 / % Residual Compound 2: monkey liver microsomes 1 mg/mL; for NADPH-dependent metabolism: monkey liver microsomes; for % Residual compound following incubation with liver microsomes: monkey microsomes 1 mg/mL; for % Residual Compound 2: 15 min
Description: as §1
(§4) Incubations with liver microsomes or cytosol were conducted in a final volume of 0.1 mL per incubation time point. […] DMSO (final DMSO concentration was 0.1%) was incubated at 37° C. from 0-60 min with pooled microsomal protein (1.0 mg/mL), suspended in incubation buffer (0.1 M potassium phosphate, pH 7.4, 5 mM MgCl2, and 0.1 mM EDTA). The microsomal reaction was initiated by the addition of NADPH (3 mM final concentration). Incubations with (a) no protein or (b) no NADPH served as controls. Reactions were terminated by the addition of 0.2 mL of stop solution (acetonitrile). The samples were vortex-mixed for 30 sec and then centrifuged at 10,000×g for 10 min. The supernatant was dried using a Labconco CentriVap concentrator and the dry residue reconstituted in water, transferred to an HPLC glass vial and analyzed by HPLC-UV method 1 (described above).
as §2

[5] = Stability in rat liver microsomes; conditions: for % Residual Compound 1 / % Residual Compound 2: rat liver microsomes 1 mg/mL; for NADPH-dependent metabolism: rat liver microsomes; for % Residual compound following incubation with liver microsomes: rat microsomes 1 mg/mL; for % Residual Compound 2: 15 min
Description: as §1, §4, §2

[6] = Incubation with rat liver cytosol; conditions: rat cytosol 1 mg/mL, 2 hours, 10 μM
Description: as §3, §2

Compound: CC(C)(CO)C(=O)SCCOP(=O)(NCc1ccccc1)OC[C@H]1O[C@@H](n2cnc3c(=O)[nH]c(N)nc32)[C@](C)(O)[C@@H]1O (mixture of isomers) [Compound 1, 3-hydroxy-2,2-dimethyl-thiopropionic acid S-(2-{[(2R,3R,4R,5R)-5-(2-amino-6-oxo-1,6-dihydro-purin-9-yl)-3,4-dihydroxy-4-methyl-tetrahydro-furan-2-ylmethoxy]-benzylamino-phosphoryloxy}-ethyl) ester]
% Residual Compound 1 ([1]; 10 μM, 0 min, NADPH): 100%
% Residual Compound 1 ([1]; 10 μM, 0 min, No Cofactor): 100%
% Residual Compound 1 ([1]; 10 μM, 30 min, NADPH): 52%
% Residual Compound 1 ([1]; 10 μM, 30 min, No Cofactor): 100%
% Residual Compound 1 ([1]; 10 μM, 60 min, NADPH): 34%
% Residual Compound 1 ([1]; 10 μM, 60 min, No Cofactor): 94%
NADPH-dependent metabolism ([1]; NADPH, 60 min, 10 μM): 66%
Residual compound following incubation with liver cytosol [2]: 100%
Residual compound following incubation with liver cytosol [3]: 100%
% Residual Compound 1 ([4]; 10 μM, 0 min, NADPH): 100%
% Residual Compound 1 ([4]; 10 μM, 0 min, No Cofactor): 100%
% Residual Compound 1 ([4]; 10 μM, 30 min, NADPH): 0%
% Residual Compound 1 ([4]; 10 μM, 30 min, No Cofactor): 81%
% Residual Compound 1 ([4]; 10 μM, 60 min, NADPH): 0%
NADPH-dependent metabolism ([4]; NADPH, 30 min, 10 μM): 100%
% Residual Compound 1 ([5]; 10 μM, 0 min, NADPH): 100%
% Residual Compound 1 ([5]; 10 μM, 0 min, No Cofactor): 100%
% Residual Compound 1 ([5]; 10 μM, 30 min, NADPH): 53%
% Residual Compound 1 ([5]; 10 μM, 30 min, No Cofactor): 103%
% Residual Compound 1 ([5]; 10 μM, 60 min, NADPH): 36%
% Residual Compound 1 ([5]; 10 μM, 60 min, No Cofactor): 103%
NADPH-dependent metabolism ([5]; NADPH, 60 min, 10 μM): 64%
Residual compound following incubation with liver cytosol [6]: 100%

NADPH-dependent metabolism ([1]; 60 min, 50 μM): 20-30%
% Residual compound following incubation with liver microsomes ([1]; 60 min, 50 μM, NADPH): 82%
% Residual compound following incubation with liver microsomes ([1]; 60 min, 50 μM, No Cofactor): 103%
Residual compound following incubation with liver cytosol [2]: 99%
Residual compound following incubation with liver cytosol [3]: 100%
NADPH-dependent metabolism ([4]; 60 min, 50 μM): 20-30%
% Residual compound following incubation with liver microsomes ([4]; 60 min, 50 μM, NADPH): 76%
% Residual compound following incubation with liver microsomes ([4]; 60 min, 50 μM, No Cofactor): 89%
NADPH-dependent metabolism ([5]; 60 min, 50 μM): 10%
% Residual compound following incubation with liver microsomes ([5]; 60 min, 50 μM, NADPH): 90%
% Residual compound following incubation with liver microsomes ([5]; 60 min, 50 μM, No Cofactor): 101%
Residual compound following incubation with liver cytosol [6]: 96%
Compound: CC(C)(CO)C(=O)SCCOP(N)(=O)OC[C@H]1O[C@@H](n2cnc3c(=O)[nH]c(N)nc32)[C@](C)(O)[C@@H]1O (mixture of isomers) [Compound 3, {9-[(2R)2-C-methyl-β-D-ribo-furanosyl]-guanin}-5′-yl-O-(hydroxy-tert-butyl-S-acyl-2-thioethyl) phosphoramidate]

% Residual Compound 2 ([1]; 10 μM, NADPH): 0%
% Residual Compound 2 ([1]; 10 μM, No Cofactor): 0%
Residual compound following incubation with liver cytosol [2]: 0%
Residual compound following incubation with liver cytosol [3]: 0%
% Residual Compound 2 ([4]; 10 μM, NADPH): 19%
% Residual Compound 2 ([4]; 10 μM, No Cofactor): 0%
% Residual Compound 2 ([5]; 10 μM, NADPH): 0%
% Residual Compound 2 ([5]; 10 μM, No Cofactor): 0%
Residual compound following incubation with liver cytosol [6]: 0%
Compound: C[C@@]1(O)[C@H](O)[C@@H](COP(=O)(O)NCc2ccccc2)O[C@H]1n1cnc2c(=O)[nH]c(N)nc21 [Compound 2, [(2R)-2-methyl-β-D-ribofuranosyl]guanine-N-benzylaminyl-5′-monophosphate]
